Laboratory results from the NIST ThermoML archive (doi:10.1021/je0500431).

Key:
[1] = for surface tension liquid-gas: Ring tensiometer; for mass density: 101.33 kPa, Liquid
[2] = xn = mol fraction of the nth substance listed; details: Ring tensiometer

OCc1ccccc1 [benzenemethanol]
[1]
Details	mass density [kg/m3]	surface tension liquid-gas [mN/m]
293.15 K	1045.2	39.05
298.15 K	1041.4	38.58
303.15 K	–	38.12
308.15 K	–	37.63
313.15 K	–	37.16
318.15 K	1025.8	36.63
323.15 K	–	36.18

OCc1ccccc1 [benzenemethanol] + CCCO
surface tension liquid-gas [mN/m], [2]
Details	x2 = 0	x2 = 0.003	x2 = 0.0062	x2 = 0.0077	x2 = 0.0116	x2 = 0.0212	x2 = 0.0326	x2 = 0.0498
293.15 K	39.05	37.57	37.01	36.88	36.75	36.35	35.95	35.62
298.15 K	38.58	37.07	36.62	36.48	36.36	35.98	35.6	35.22
303.15 K	38.12	36.6	36.23	36.12	36	35.62	35.3	34.86
308.15 K	37.63	36.15	35.84	35.74	35.63	35.23	34.98	34.48
313.15 K	37.16	35.64	35.44	35.36	35.2	34.83	34.67	34.14
318.15 K	36.63	35.19	35.07	35	34.85	34.5	34.38	33.76
323.15 K	36.18	34.73	34.68	34.64	34.44	34.13	34.03	33.41

CCCCO [butan-1-ol]
[1]
Details	mass density [kg/m3]	surface tension liquid-gas [mN/m]
293.15 K	810.4	24.16
298.15 K	806.5	23.7
303.15 K	–	23.26
308.15 K	–	22.78
313.15 K	–	22.39
318.15 K	790.9	21.99
323.15 K	–	21.53

CCCCO [butan-1-ol] + OCc1ccccc1
[2], x1 = 1
Details	surface tension liquid-gas [mN/m]
293.15 K	24.16
298.15 K	23.7
303.15 K	23.26
308.15 K	22.78
313.15 K	22.39
318.15 K	21.99
323.15 K	21.53

CCC(C)O (stereo not drawn) [butan-2-ol]
[1]
Details	mass density [kg/m3]	surface tension liquid-gas [mN/m]
293.15 K	807.1	23.18
298.15 K	802.9	22.74
303.15 K	–	22.38
308.15 K	–	21.94
313.15 K	–	21.56
318.15 K	785.5	21.11
323.15 K	–	20.76

CCC(C)O (stereo not drawn) [butan-2-ol] + OCc1ccccc1
[2], x1 = 1
Details	surface tension liquid-gas [mN/m]
293.15 K	23.18
298.15 K	22.74
303.15 K	22.38
308.15 K	21.94
313.15 K	21.56
318.15 K	21.11
323.15 K	20.76

CCCCCO [pentan-1-ol]
[1]
Details	mass density [kg/m3]	surface tension liquid-gas [mN/m]
293.15 K	815.3	25.69
298.15 K	811.6	25.29
303.15 K	–	24.86
308.15 K	–	24.49
313.15 K	–	24.06
318.15 K	796.6	23.67
323.15 K	–	23.3

CCCCCO [pentan-1-ol] + OCc1ccccc1
[2], x1 = 1
Details	surface tension liquid-gas [mN/m]
293.15 K	25.69
298.15 K	25.29
303.15 K	24.86
308.15 K	24.49
313.15 K	24.06
318.15 K	23.67
323.15 K	23.3

CCCC(C)O (stereo not drawn) [pentan-2-ol]
[1]
Details	mass density [kg/m3]	surface tension liquid-gas [mN/m]
293.15 K	809.8	23.7
298.15 K	805.7	23.28
303.15 K	–	22.87
308.15 K	–	22.43
313.15 K	–	22.04
318.15 K	788.8	21.6
323.15 K	–	21.16

CCCC(C)O (stereo not drawn) [pentan-2-ol] + OCc1ccccc1
[2], x1 = 1
Details	surface tension liquid-gas [mN/m]
293.15 K	23.7
298.15 K	23.28
303.15 K	22.87
308.15 K	22.43
313.15 K	22.04
318.15 K	21.6
323.15 K	21.16

CCCO [propan-1-ol]
[1]
Details	mass density [kg/m3]	surface tension liquid-gas [mN/m]
293.15 K	803.1	23.73
298.15 K	799.3	23.3
303.15 K	–	22.9
308.15 K	–	22.52
313.15 K	–	22.1
318.15 K	783.2	21.68
323.15 K	–	21.27

CCCO [propan-1-ol] + OCc1ccccc1
[2], x1 = 1
Details	surface tension liquid-gas [mN/m]
293.15 K	23.73
298.15 K	23.3
303.15 K	22.9
308.15 K	22.52
313.15 K	22.1
318.15 K	21.68
323.15 K	21.27

CC(C)O [propan-2-ol]
[1]
Details	mass density [kg/m3]	surface tension liquid-gas [mN/m]
293.15 K	785.1	21.3
298.15 K	780.9	20.95
303.15 K	–	20.55
308.15 K	–	20.2
313.15 K	–	19.83
318.15 K	763.3	19.47
323.15 K	–	19.09

CC(C)O [propan-2-ol] + OCc1ccccc1
[2], x1 = 1
Details	surface tension liquid-gas [mN/m]
293.15 K	21.3
298.15 K	20.95
303.15 K	20.55
308.15 K	20.2
313.15 K	19.83
318.15 K	19.47
323.15 K	19.09
